Experimental data from paper PMC12006171, “Marsupial cathelicidins: characterization, antimicrobial activity and evolution in this unique mammalian lineage” (Frontiers in Immunology, 2025).
In brackets after ≈: the same amount, converted by molar mass. Read-outs that look alike come from different tables or passages of the source. Where a SMILES comes first, the peptide text is derived from it.

Experiments:
[1] = tested on: six bacteria (S. aureus, E. coli, P. aeruginosa; ATCC and clinical isolate); parameters: method as in 4 sources, ref Peel et al 2016 ||| ref Peel et al 2021 ||| ref Wang et al 2011 ||| ref Peel et al 2017; details: cited from earlier work
[2] = tested on: three fungi (Candida krusei, Candida parapsilosis, Candida albicans); parameters: method as in 4 sources, ref Peel et al 2016 ||| ref Peel et al 2021 ||| ref Wang et al 2011 ||| ref Peel et al 2017; details: cited from earlier work
[3] = tested on: Escherichia coli ATCC 25922; test: microbe, parasite or virus in culture; format: cell-based; details: ATCC 25922
Procedure: (§1) Antimicrobial testing of 78 cathelicidin MPs was performed in two phases as outlined in Figure 1 . In phase I, 40 peptides (27 extant and 13 ancestral) were selected for testing based on rank (outlined above) and similarity to published marsupial cathelicidins with known antimicrobial activity ([33], [41]–[43]). These peptides were tested against nine bacteria (Staphylococcus aureus ATCC 29213 and clinical isolate, Escherichia coli ATCC 25922 and clinical isolate, Pseudomonas aeruginosa ATCC 27853 and clinical isolate, Streptococcus agalactiae ATCC 12386 and clinical isolate, Streptococcus pneumoniae ATCC 49619) and three fungi (Candida krusei ATCC 6258, Candida parapsilosis ATCC 22019, and Candida albicans clinical isolate). Details regarding these strains are available in Supplementary Table 4 . The antimicrobial activity of cathelicidins was determined as the minimum inhibitory concentration (MIC), which was the lowest concentration of cathelicidin that prevented visible bacterial or fungal growth, relative to the negative control. […] Minimum bactericidal concentration (MBC) and/or minimum fungicidal concentration (MFC) was conducted to determine microbicidal versus static action. Activity against S. aureus ATCC, E. coli ATCC, and Pseudomonas aeruginosa ATCC 27853 was examined in the presence of divalent cations to determine the impact of inhibitors.
(§2) In phase II, the remaining 38 peptides (37 extant and one ancestral) were tested against six bacteria (S. aureus ATCC and clinical isolate, E. coli ATCC and clinical isolate, and P. aeruginosa ATCC and clinical isolate). […] No further testing on phase II peptides was performed. Detailed methods for all assays are provided in subsequent sections.
(§3) Antimicrobial activity was determined using a broth microdilution susceptibility assay in 96 well polypropylene plates according to Clinical Laboratory Standards Institute guidelines M07-A and M26A as described previously ([33], [42], [43]). The bacterial and fungal isolates from humans and animals used in this study are outlined in Supplementary Table 4 . Only yeasts were included in the panel of fungi as they have been used in the susceptibility testing of eutherian ([3], [81]–[83]) and other marsupial cathelicidins previously ([33], [42], [43]). Cathelicidin mature peptides were solubilized in DMSO and serially diluted in duplicate from 128-0.25μg/mL in a final volume of 100µL. For bacteria, cathelicidins were diluted in Mueller Hinton Broth (MHB) with or without 10% lysed horse blood, and with (MH II B) or without (MHB) calcium and magnesium cations. For fungi, cathelicidins were diluted in Roswell Park Memorial Institute medium (RPMI)-1640 MOPS. Ampicillin or tetracycline were included as a positive control for Gram-positive and -negative bacteria respectively, while amphotericin B was used for fungi. A media-only negative control and growth control (no cathelicidin) were also included on each plate. Bacteria were sub-cultured on Muller Hinton agar (MHA) or sheep blood agar (BA), and fungi on Sabouraud dextrose agar (SAB), 20–24 hours prior to the test. Colonies were suspended in saline, the concentration adjusted to a 0.5 McFarland standard, and then diluted in media to a concentration of 1.0 x 10^6 cells/mL. Then, 100μL was added to each well of the cathelicidin dilution plate, giving a final inoculum density of 5 x 10^5 CFU/mL and cathelicidin concentration of 64-0.125μg/mL. Colony counts were performed on MHA/BA/SAB to confirm inoculum density. All plates were incubated at 35°C for 20–24 hours, depending on the strain.
(§4) Colonies were counted and compared to the colony count of the starting inoculum.

[4] = tested on: Escherichia coli clinical isolate - animal; test: microbe, parasite or virus in culture; format: cell-based; details: clinical isolate - animal
Procedure: as §1, §2, §3, §4

[5] = tested on: Pseudomonas aeruginosa ATCC 27853; test: microbe, parasite or virus in culture; format: cell-based; details: ATCC 27853; read-out: MIC P. aeruginosa ATCC
Procedure: as §1, §2, §3, §4

[6] = tested on: Pseudomonas aeruginosa clinical isolate - animal; test: microbe, parasite or virus in culture; format: cell-based; details: clinical isolate - animal; read-out: MIC P. aeruginosa
Procedure: as §1, §2, §3, §4

[7] = tested on: Staphylococcus aureus ATCC 29213; test: microbe, parasite or virus in culture; format: cell-based; details: ATCC 29213; for MIC: read-out: MIC S. aureus ATCC
Procedure: as §1, §2, §3, §4

[8] = tested on: Staphylococcus aureus clinical isolate - animal; test: microbe, parasite or virus in culture; format: cell-based; details: clinical isolate - animal; for MIC: read-out: MIC S. aureus
Procedure: as §1, §2, §3, §4

[9] = mature peptide (MP), Y/N summary, ref Peel et al 2017
[10] = mature peptide, Y/N summary from earlier study, ref Peel et al 2021

| Molecule | Antibacterial (MIC <64ug/mL) [1, 9] | Antifungal (MIC <64ug/mL) [2, 9] | MIC [5] [µM] | MIC [6] [µM] | MIC [7] [µM] | further results |
| --- | --- | --- | --- | --- | --- | --- |
| LKKFFSSMIKKAVSKGISKGISKGIQEVDKAIKQKK [ModoCath2] | N (Peel et al 2017) (Antibacterial (MIC <64ug/mL)) | N (Peel et al 2017) (Antifungal (MIC <64ug/mL)) | – | – | – | – |
| LKKIFGSIVKKAVSKGVAEGLKAVDEARKAEKKGKK [ModoCath1] | N (Peel et al 2017) (Antibacterial (MIC <64ug/mL)) | N (Peel et al 2017) (Antifungal (MIC <64ug/mL)) | – | – | – | – |
| STILEDPGKIRERRDIGEEPIQKKQKMYRDQMQ [SahaCath7] | – | – | – | – | – | Antibacterial (MIC <64ug/mL) [1, 10]: N (Peel et al 2021) (Antibacterial (MIC <64ug/mL)); Antifungal (MIC <64ug/mL) [2, 10]: N (Peel et al 2021) (Antifungal (MIC <64ug/mL)) |
| VSESISHGIPKAISAVNKLIKKKKKGATTPRVK [ModoCath6] | N (Peel et al 2017) (Antibacterial (MIC <64ug/mL)) | N (Peel et al 2017) (Antifungal (MIC <64ug/mL)) | – | – | – | – |
| LYRRRKYPTSYYLLLGGKGNNRGYKPHIIYV [ModoCath11] | N (Peel et al 2017) (Antibacterial (MIC <64ug/mL)) | N (Peel et al 2017) (Antifungal (MIC <64ug/mL)) | – | – | – | – |
| CC[C@H](C)[C@H](NC(=O)[C@H](CO)NC(=O)[C@H](CCCNC(=N)N)NC(=O)[C@H](CCCNC(=N)N)NC(=O)[C@@H]1CCCN1C(=O)[C@H](CCCNC(=N)N)NC(=O)[C@@H]1CCCN1C(=O)[C@H](Cc1ccccc1)NC(=O)[C@@H]1CCCN1C(=O)[C@H](Cc1ccccc1)NC(=O)CNC(=O)[C@@H]1CCCN1C(=O)[C@H](CCCNC(=N)N)NC(=O)[C@@H]1CCCN1C(=O)[C@H](Cc1ccccc1)NC(=O)[C@@H]1CCCN1C(=O)[C@H](Cc1ccccc1)NC(=O)CNC(=O)[C@@H]1CCCN1C(=O)[C@H](CCCNC(=N)N)NC(=O)[C@@H]1CCCN1C(=O)[C@H](Cc1ccccc1)NC(=O)[C@H](CO)NC(=O)[C@@H]1CCCN1C(=O)[C@H](CCCNC(=N)N)NC(=O)[C@@H]1CCCN1C(=O)[C@H](CCCNC(=N)N)NC(=O)[C@@H]1CCCN1C(=O)[C@H](CCCNC(=N)N)NC(=O)[C@@H]1CCCN1C(=O)[C@H](CC(C)C)NC(=O)[C@H](Cc1ccc(O)cc1)NC(=O)[C@@H]1CCCN1C(=O)[C@H](CCCNC(=N)N)NC(=O)[C@H](CCCNC(=N)N)NC(=O)[C@H](CCC(=O)O)NC(=O)[C@H](CCCNC(=N)N)NC(=O)[C@@H](N)CCCNC(=N)N)C(=O)O [MyfaCath3] (H-RRERRPYLPRPRPRPSFPRPGFPFPRPGFPFPRPRRSI-OH) | – | – | >13.6 | >13.6 | >13.6 | MBC E. coli ATCC [3]: 1.7 µM (≈ 7.99 µg/mL); MIC E. coli ATCC [3]: 1.7 µM (≈ 7.99 µg/mL); MBC E. coli [4]: 3.4 µM (≈ 16 µg/mL); MIC E. coli [4]: 3.4 µM (≈ 16 µg/mL); MIC [8]: >13.6 µM |
| CC[C@H](C)[C@H](NC(=O)[C@H](C)NC(=O)[C@H](CC(N)=O)NC(=O)[C@H](CCCCN)NC(=O)[C@@H](NC(=O)[C@@H](NC(=O)[C@H](CC(N)=O)NC(=O)[C@H](CCCCN)NC(=O)[C@@H](NC(=O)[C@H](CCCCN)NC(=O)[C@H](CC(=O)O)NC(=O)CNC(=O)[C@H](C)NC(=O)[C@H](CCCNC(=N)N)NC(=O)[C@H](CCCCN)NC(=O)[C@H](CC(C)C)NC(=O)[C@H](Cc1ccccc1)NC(=O)[C@H](CC(N)=O)NC(=O)[C@H](CCCCN)NC(=O)[C@H](Cc1ccccc1)NC(=O)[C@H](CCCCN)NC(=O)[C@H](CCC(=O)O)NC(=O)[C@H](Cc1ccccc1)NC(=O)[C@@H](NC(=O)[C@H](CCCNC(=N)N)NC(=O)[C@H](CC(C)C)NC(=O)[C@H](CCCCN)NC(=O)[C@H](CCCCN)NC(=O)[C@@H](NC(=O)[C@H](CC(N)=O)NC(=O)[C@H](CCC(=O)O)NC(=O)[C@@H]1CCCN1C(=O)[C@@H](N)CCCNC(=N)N)[C@@H](C)CC)C(C)C)[C@@H](C)CC)[C@@H](C)O)[C@@H](C)CC)C(=O)N[C@@H](CC(N)=O)C(=O)N[C@@H](CC(N)=O)C(=O)N[C@@H](CC(C)C)C(=O)N[C@@H](Cc1ccccc1)C(=O)N[C@@H](CO)C(=O)O [PeguCath3] (H-RPENIKKLRVFEKFKNFLKRAGDKIKNTIKNAINNLFS-OH) | – | – | >14.1 | >14.1 | >14.1 | MIC ([3]; read-out: MIC E. coli ATCC): 14.1 µM (≈ 63.9 µg/mL); MIC [4]: >14.1 µM; MIC [8]: >14.1 µM |
| CC[C@H](C)[C@H](NC(=O)[C@H](CC(C)C)NC(=O)[C@H](CC(N)=O)NC(=O)[C@@H](NC(=O)[C@H](Cc1ccccc1)NC(=O)CNC(=O)[C@@H](N)Cc1c[nH]c2ccccc12)[C@@H](C)O)C(=O)N[C@@H](Cc1ccc(O)cc1)C(=O)N[C@@H](CCC(N)=O)C(=O)N[C@@H](CCCCN)C(=O)N[C@@H](Cc1ccc(O)cc1)C(=O)N[C@@H](CCCCN)C(=O)N[C@@H](CC(C)C)C(=O)N[C@@H](CC(C)C)C(=O)N[C@@H](CCCNC(=N)N)C(=O)N[C@@H](CC(N)=O)C(=O)N[C@H](C(=O)N[C@@H](Cc1ccccc1)C(=O)N[C@@H](CCCNC(=N)N)C(=O)N[C@@H](CCCCN)C(=O)N[C@@H](CC(C)C)C(=O)N[C@@H](CCCNC(=N)N)C(=O)N[C@@H](CC(N)=O)C(=O)N[C@H](C(=O)N[C@@H](CO)C(=O)N[C@@H](CO)C(=O)NCC(=O)NCC(=O)N[C@@H](CCCNC(=N)N)C(=O)N[C@@H](CC(=O)O)C(=O)N[C@@H](CC(N)=O)C(=O)N[C@@H](CCCCN)C(=O)N[C@@H](CCCCN)C(=O)O)[C@@H](C)O)C(C)C [BepeCath4] (H-WGFTNLIYQKYKLLRNVFRKLRNTSSGGRDNKK-OH) | – | – | >15.9 | >15.9 | 7.9 (≈ 31.6 µg/mL) | MBC E. coli ATCC [3]: 3.9 µM (≈ 15.6 µg/mL); MIC E. coli ATCC [3]: 3.9 µM (≈ 15.6 µg/mL); MBC E. coli [4]: 7.9 µM (≈ 31.6 µg/mL); MIC [4]: 3.9 µM (≈ 15.6 µg/mL); MBC S. aureus ATCC [7]: 15.9 µM (≈ 63.6 µg/mL); MBC S. aureus [8]: 7.9 µM (≈ 31.6 µg/mL); MIC S. aureus [8]: 7.9 µM (≈ 31.6 µg/mL) |
